Experimental data from patent US10259810B2, “N-sulfonylated pyrazolo[3,4-b]pyridin-6-carboxamides and method of use” (AbbVie S.à.r.l., priority 2015, dated 2019).

How the values were obtained:
ΔF508-CFTR [1] = biological target: T1, ΔF508-CFTR (Homo sapiens, UniProt P13569, DEL508-508); test: CFTR cell surface levels using HRP-tagged ΔF508-CFTR expressing CFBE cells, in the presence of a co-corrector; assay type: cell-based; conditions: HRP-tagged ΔF508-CFTR CFBE cells, in the presence of 3 μM co-corrector; for EC50: read-out: EC50
T1 construct: host or cells: CFBE41o-, doxycycline-inducible
In short: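 Chemiluminescent read-out of surface HRP (15 min, dark) after PBS washes. Activity is normalized as 100×(sample−DMSO)/(3 μM co-corrector alone−DMSO).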

ΔF508-CFTR [2] = biological target: T1, ΔF508-CFTR; test: CFTR cell surface levels using HRP-tagged ΔF508-CFTR expressing CFBE cells, intrinsic corrector capacity; assay type: cell-based; parameters: % Activation: concentration or dose not given beside the values; conditions: HRP-tagged ΔF508-CFTR expressing CFBE41o- cells, compound alone (intrinsic corrector capacity), 20 hours at 33° C.; for EC50: read-out: EC50
In short: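 Read-out: chemiluminescent HRP activity of ECL4-HRP-tagged ΔF508-CFTR at the cell surface, 15 min substrate in dark. Normalized as 100×(sample−DMSO)/(positive control−DMSO).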

T1 sequence (P13569 with tags, fused parts or gaps DEL508-508): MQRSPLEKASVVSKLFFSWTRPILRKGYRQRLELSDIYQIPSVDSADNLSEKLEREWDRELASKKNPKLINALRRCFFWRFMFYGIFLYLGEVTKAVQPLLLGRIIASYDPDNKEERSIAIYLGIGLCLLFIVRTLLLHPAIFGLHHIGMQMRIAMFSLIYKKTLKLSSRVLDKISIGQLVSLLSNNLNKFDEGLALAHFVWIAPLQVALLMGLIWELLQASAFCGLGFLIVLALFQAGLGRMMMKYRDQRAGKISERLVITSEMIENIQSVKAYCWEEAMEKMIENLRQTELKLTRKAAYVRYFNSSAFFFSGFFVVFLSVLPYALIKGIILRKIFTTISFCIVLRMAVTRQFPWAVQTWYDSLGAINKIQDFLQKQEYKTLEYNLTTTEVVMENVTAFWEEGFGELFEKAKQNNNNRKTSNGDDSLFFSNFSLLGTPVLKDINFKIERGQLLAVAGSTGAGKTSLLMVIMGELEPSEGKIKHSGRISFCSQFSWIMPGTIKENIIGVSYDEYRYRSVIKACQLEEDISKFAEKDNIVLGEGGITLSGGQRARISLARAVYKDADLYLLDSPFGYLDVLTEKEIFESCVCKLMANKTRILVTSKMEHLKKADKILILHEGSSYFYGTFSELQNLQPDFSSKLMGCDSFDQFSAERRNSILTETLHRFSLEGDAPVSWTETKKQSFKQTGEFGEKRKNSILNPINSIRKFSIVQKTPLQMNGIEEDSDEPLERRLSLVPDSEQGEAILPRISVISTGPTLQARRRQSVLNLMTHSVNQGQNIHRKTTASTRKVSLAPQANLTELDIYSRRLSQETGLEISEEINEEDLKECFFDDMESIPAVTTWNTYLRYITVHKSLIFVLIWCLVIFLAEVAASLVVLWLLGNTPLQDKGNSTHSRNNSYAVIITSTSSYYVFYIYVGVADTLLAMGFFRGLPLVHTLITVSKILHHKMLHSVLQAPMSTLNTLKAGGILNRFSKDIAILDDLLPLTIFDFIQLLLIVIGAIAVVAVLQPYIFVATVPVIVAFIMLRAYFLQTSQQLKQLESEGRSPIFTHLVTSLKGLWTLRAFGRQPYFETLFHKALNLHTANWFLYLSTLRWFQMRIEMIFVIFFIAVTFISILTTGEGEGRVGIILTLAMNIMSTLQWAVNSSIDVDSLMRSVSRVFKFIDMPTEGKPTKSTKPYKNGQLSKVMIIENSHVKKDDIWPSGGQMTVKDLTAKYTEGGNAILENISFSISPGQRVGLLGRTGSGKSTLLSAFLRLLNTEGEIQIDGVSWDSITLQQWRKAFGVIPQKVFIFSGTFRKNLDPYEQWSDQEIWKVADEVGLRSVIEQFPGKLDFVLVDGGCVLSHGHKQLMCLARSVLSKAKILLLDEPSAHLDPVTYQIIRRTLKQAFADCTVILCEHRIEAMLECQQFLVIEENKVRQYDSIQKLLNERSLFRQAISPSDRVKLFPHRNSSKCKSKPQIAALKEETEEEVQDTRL

| Compound | % Activation (ΔF508-CFTR [1]) | EC50 (ΔF508-CFTR [1]) | % Activation (ΔF508-CFTR [2]) | EC50 (ΔF508-CFTR [2]) |
| --- | --- | --- | --- | --- |
| CC(C)c1nn(C2CCCCC2)c2nc(C(=O)NS(C)(=O)=O)cc(-c3ccc(N4CCOC(C)(C)C4)nc3)c12 [Compound 94, 1-cyclohexyl-4-[6-(2,2-dimethylmorpholin-4-yl)pyridin-3-yl]-N-(methanesulfonyl)-3-(propan-2-yl)-1H-pyrazolo[3,4-b]pyridine-6-carboxamide] | 421.53% | 0.342 µM | 193.5% | 0.614 µM |
| CC(C)c1nn(-c2cccc(N3CCOCC3)c2)c2nc(C(=O)NS(C)(=O)=O)cc(-c3ccc(N(C)C4CCOCC4)cc3)c12 [Compound 97, N-(methanesulfonyl)-4-{4-[methyl(oxan-4-yl)amino]phenyl}-1-[3-(morpholin-4-yl)phenyl]-3-(propan-2-yl)-1H-pyrazolo[3,4-b]pyridine-6-carboxamide] | 692.82% | 0.277 µM | 444.85% | 0.399 µM |
| CC(C)c1nn(C2CCCCC2)c2nc(C(=O)NS(C)(=O)=O)cc(-c3ccc(N4CCC(C)(C#N)CC4)nc3)c12 [Compound 98, 4-[6-(4-cyano-4-methylpiperidin-1-yl)pyridin-3-yl]-1-cyclohexyl-N-(methanesulfonyl)-3-(propan-2-yl)-1H-pyrazolo[3,4-b]pyridine-6-carboxamide] | 360.15% | 0.393 µM | 154% | 0.556 µM |
| CC(C)c1nn(-c2cccc(N3CCOCC3)c2)c2nc(C(=O)NS(C)(=O)=O)cc(-c3cnc(N4CCC(C#N)CC4)nc3)c12 [Compound 99, 4-[2-(4-cyanopiperidin-1-yl)pyrimidin-5-yl]-N-(methanesulfonyl)-1-[3-(morpholin-4-yl)phenyl]-3-(propan-2-yl)-1H-pyrazolo[3,4-b]pyridine-6-carboxamide] | 601.15% | 0.337 µM | 414.8% | 0.41 µM |
| Cc1nn(-c2ccccc2)c2nc(C(=O)NS(C)(=O)=O)cc(-c3ccc(N4CCC(N(C)C)C4)cc3)c12 (stereo not drawn) [Compound 100, 4-{4-[3-(dimethylamino)pyrrolidin-1-yl]phenyl}-N-(methanesulfonyl)-3-methyl-1-phenyl-1H-pyrazolo[3,4-b]pyridine-6-carboxamide] | 340.6% | 3.22 µM | 113% | 2.48 µM |
| Cc1cccc(-n2nc(C(C)C)c3c(N4CCCCC4)cc(C(=O)NS(C)(=O)=O)nc32)c1 [Compound 101, N-(methanesulfonyl)-1-(3-methylphenyl)-4-(piperidin-1-yl)-3-(propan-2-yl)-1H-pyrazolo[3,4-b]pyridine-6-carboxamide] | 455.4% | 0.409 µM | 254.85% | 0.839 µM |
| CCS(=O)(=O)NC(=O)c1cc(N2CCCCC2)c2c(C(C)C)nn(-c3cccc(C)c3)c2n1 [Compound 102, N-(ethanesulfonyl)-1-(3-methylphenyl)-4-(piperidin-1-yl)-3-(propan-2-yl)-1H-pyrazolo[3,4-b]pyridine-6-carboxamide] | 458.75% | 0.537 µM | 233.9% | 0.897 µM |
| CS(=O)(=O)NC(=O)c1cc(-c2ccc(N3CCC(C#N)CC3)cc2)c2c(C3CCC3)nn(C3CCCCC3)c2n1 [Compound 103, 4-[4-(4-cyanopiperidin-1-yl)phenyl]-3-cyclobutyl-1-cyclohexyl-N-(methanesulfonyl)-1H-pyrazolo[3,4-b]pyridine-6-carboxamide] | 501.03% | 0.409 µM | 263.8% | 0.536 µM |
| CC(C)c1nn(-c2cccc(N3CC(O)C3)c2)c2nc(C(=O)NS(C)(=O)=O)cc(-c3ccc(N4CCOCC4)cc3)c12 [Compound 105, 1-[3-(3-hydroxyazetidin-1-yl)phenyl]-N-(methanesulfonyl)-4-[4-(morpholin-4-yl)phenyl]-3-(propan-2-yl)-1H-pyrazolo[3,4-b]pyridine-6-carboxamide] | 457.85% | 0.699 µM | 258.1% | 0.908 µM |
| COC1CCN(c2ccc(-c3cc(C(=O)NS(C)(=O)=O)nc4c3c(C(C)C)nn4C3CCCCC3)cn2)C1 (stereo not drawn) [Compound 106, 1-cyclohexyl-N-(methanesulfonyl)-4-[6-(3-methoxypyrrolidin-1-yl)pyridin-3-yl]-3-(propan-2-yl)-1H-pyrazolo[3,4-b]pyridine-6-carboxamide] | 348.1% | 0.394 µM | 162.75% | 0.526 µM |
| COC(=O)N1CC(c2nn(-c3cc(F)cc(F)c3)c3nc(C(=O)NS(C)(=O)=O)cc(-c4ccc(NC(C)=O)cc4)c23)C1 [Compound 107, methyl 3-{4-(4-acetamidophenyl)-1-(3,5-difluorophenyl)-6-[(methanesulfonyl)carbamoyl]-1H-pyrazolo[3,4-b]pyridin-3-yl}azetidine-1-carboxylate] | 219.4% | 3.34 µM | 64.54% | 3.34 µM |
| CC(C)c1nn(C2CCCCC2)c2nc(C(=O)NS(C)(=O)=O)cc(-c3ccc(N4CCCC(F)C4)nc3)c12 (stereo not drawn) [Compound 108, 1-cyclohexyl-4-[6-(3-fluoropiperidin-1-yl)pyridin-3-yl]-N-(methanesulfonyl)-3-(propan-2-yl)-1H-pyrazolo[3,4-b]pyridine-6-carboxamide] | 428.3% | 0.509 µM | 218.05% | 0.561 µM |
| COCCN(C)c1ccc(-c2cc(C(=O)NS(C)(=O)=O)nc3c2c(C(C)C)nn3-c2cccc(N3CCCC3)c2)cc1 [Compound 109, N-(methanesulfonyl)-4-{4-[(2-methoxyethyl)(methyl)amino]phenyl}-3-(propan-2-yl)-1-[3-(pyrrolidin-1-yl)phenyl]-1H-pyrazolo[3,4-b]pyridine-6-carboxamide] | 571.3% | 0.634 µM | 381.05% | 0.613 µM |
| CN(c1ccc(-c2cc(C(=O)NS(C)(=O)=O)nc3c2c(C2CCC2)nn3-c2cccc(N3CCCC3)c2)cc1)C1CCOCC1 [Compound 111, 3-cyclobutyl-N-(methanesulfonyl)-4-{4-[methyl(oxan-4-yl)amino]phenyl}-1-[3-(pyrrolidin-1-yl)phenyl]-1H-pyrazolo[3,4-b]pyridine-6-carboxamide] | 596.8% | 0.378 µM | 411.63% | 0.444 µM |
| CCS(=O)(=O)NC(=O)c1cc(-c2cnc(N3CCOCC3)nc2)c2c(C(C)C)nn(-c3ccccc3)c2n1 [Compound 112, N-(ethanesulfonyl)-4-[2-(morpholin-4-yl)pyrimidin-5-yl]-1-phenyl-3-(propan-2-yl)-1H-pyrazolo[3,4-b]pyridine-6-carboxamide] | 472.8% | 0.884 µM | 254.85% | 0.699 µM |
| CCS(=O)(=O)NC(=O)c1cc(-c2ccc(OC)cc2)c2c(C)nn(-c3ccc(C)c(Cl)c3)c2n1 [Compound 114, 1-(3-chloro-4-methylphenyl)-N-(ethanesulfonyl)-4-(4-methoxyphenyl)-3-methyl-1H-pyrazolo[3,4-b]pyridine-6-carboxamide] | 277.45% | 0.952 µM | 130.85% | 1.14 µM |
| CCS(=O)(=O)NC(=O)c1cc(-c2ccc(N3CCOCC3)cc2)c2c(C)nn(-c3cc(C)cc(C)c3)c2n1 [Compound 115, 1-(3,5-dimethylphenyl)-N-(ethanesulfonyl)-3-methyl-4-[4-(morpholin-4-yl)phenyl]-1H-pyrazolo[3,4-b]pyridine-6-carboxamide] | 389.6% | 0.665 µM | 216.05% | 1.05 µM |
| CCS(=O)(=O)NC(=O)c1cc(-c2ccc(N3CCOCC3)cc2)c2c(C)nn(-c3ccc(F)c(F)c3)c2n1 [Compound 116, 1-(3,4-difluorophenyl)-N-(ethanesulfonyl)-3-methyl-4-[4-(morpholin-4-yl)phenyl]-1H-pyrazolo[3,4-b]pyridine-6-carboxamide] | 438.37% | 0.631 µM | 295.57% | 0.957 µM |
| CCS(=O)(=O)NC(=O)c1cc(N2CCC(OC)CC2)c2c(C(C)C)nn(-c3cccc(C)c3)c2n1 [Compound 118, N-(ethanesulfonyl)-4-(4-methoxypiperidin-1-yl)-1-(3-methylphenyl)-3-(propan-2-yl)-1H-pyrazolo[3,4-b]pyridine-6-carboxamide] | 469% | 0.28 µM | 289.93% | 0.398 µM |
| COCCN(C)c1ncc(-c2cc(C(=O)NS(C)(=O)=O)nc3c2c(C(C)C)nn3C2CCCCC2)cn1 [Compound 120, 1-cyclohexyl-N-(methanesulfonyl)-4-{2-[(2-methoxyethyl)(methyl)amino]pyrimidin-5-yl}-3-(propan-2-yl)-1H-pyrazolo[3,4-b]pyridine-6-carboxamide] | 351.03% | 0.348 µM | 169.2% | 0.554 µM |
| CC(C)c1nn(C2CCCCC2)c2nc(C(=O)NS(C)(=O)=O)cc(-c3ccc(N(C)C4CCOC4)nc3)c12 (stereo not drawn) [Compound 122, 1-cyclohexyl-N-(methanesulfonyl)-4-{6-[methyl(oxolan-3-yl)amino]pyridin-3-yl}-3-(propan-2-yl)-1H-pyrazolo[3,4-b]pyridine-6-carboxamide] | 405.9% | 0.281 µM | 184.53% | 0.47 µM |
